One experiment concerns tight junction. More on the design: species or system BALB/c mice. To be noted: mouse, in vivo, iv.
Experiment [1] has as its system epithelial and endothelial tissues. To be noted: in vivo.
The target of another experiment is PTEN (Homo sapiens, UniProt P60484). In kind it is biochemical.
PTEN, sequence (P60484 whole entry): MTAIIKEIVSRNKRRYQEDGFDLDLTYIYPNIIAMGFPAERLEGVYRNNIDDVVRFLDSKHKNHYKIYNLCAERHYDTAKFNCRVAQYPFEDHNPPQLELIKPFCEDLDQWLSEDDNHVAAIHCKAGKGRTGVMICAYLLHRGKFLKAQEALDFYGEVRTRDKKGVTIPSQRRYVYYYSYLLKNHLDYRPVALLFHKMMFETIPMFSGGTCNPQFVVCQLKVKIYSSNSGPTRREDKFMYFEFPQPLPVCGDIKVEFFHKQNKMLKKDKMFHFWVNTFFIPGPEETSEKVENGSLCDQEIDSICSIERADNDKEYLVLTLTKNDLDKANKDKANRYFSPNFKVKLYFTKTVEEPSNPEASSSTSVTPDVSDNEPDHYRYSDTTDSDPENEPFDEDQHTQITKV

“1-D-Myo-inositol 1,2,6-triphosphate [alpha trinositol]”: in the experiment on tight junction, the “effect on tight junction disturbance” value is “have a counterbalancing effect”. For the substance “sodium salt of D-myo-inositol-1,2,6-trisphosphate”, the “progressive deterioration of the structure and function of anatomical structures in epithelial and endothelial tissues” value in experiment [1] was “prevented this deterioration”. Also, in experiment [1] (iv), the “confirmation of the prevention of tissue deterioration” value was “confirmed”.

zinc ions: the “activity of PTEN” value on PTEN is “inhibit the activity of PTEN”.

For the origin of these results see US20160074421A1 (priority 2014, published 2016).
